{"source": "patent US20080064691A1", "about": "“Heterocyclic Amide Derivatives Which Possess Glycogen Phosphorylase Inhibitory Activity” (AstraZeneca AB, priority 2003, published 2008)", "key": {"conscious dogs": {"system": "conscious dogs", "conditions": "cited from earlier work"}, "hepatocytes": {"system": "hepatocytes", "conditions": "cited from earlier work"}, "db/db and ob/ob mice": {"system": "db/db and ob/ob mice", "conditions": "db/db and ob/ob mice following treatment; cited from earlier work"}, "[1]": {"biological_target": "T1, Human recombinant liver glycogen phosphorylase a (hrl GPα) (Homo sapiens, UniProt P06737)", "T1 sequence (P06737 1-847)": "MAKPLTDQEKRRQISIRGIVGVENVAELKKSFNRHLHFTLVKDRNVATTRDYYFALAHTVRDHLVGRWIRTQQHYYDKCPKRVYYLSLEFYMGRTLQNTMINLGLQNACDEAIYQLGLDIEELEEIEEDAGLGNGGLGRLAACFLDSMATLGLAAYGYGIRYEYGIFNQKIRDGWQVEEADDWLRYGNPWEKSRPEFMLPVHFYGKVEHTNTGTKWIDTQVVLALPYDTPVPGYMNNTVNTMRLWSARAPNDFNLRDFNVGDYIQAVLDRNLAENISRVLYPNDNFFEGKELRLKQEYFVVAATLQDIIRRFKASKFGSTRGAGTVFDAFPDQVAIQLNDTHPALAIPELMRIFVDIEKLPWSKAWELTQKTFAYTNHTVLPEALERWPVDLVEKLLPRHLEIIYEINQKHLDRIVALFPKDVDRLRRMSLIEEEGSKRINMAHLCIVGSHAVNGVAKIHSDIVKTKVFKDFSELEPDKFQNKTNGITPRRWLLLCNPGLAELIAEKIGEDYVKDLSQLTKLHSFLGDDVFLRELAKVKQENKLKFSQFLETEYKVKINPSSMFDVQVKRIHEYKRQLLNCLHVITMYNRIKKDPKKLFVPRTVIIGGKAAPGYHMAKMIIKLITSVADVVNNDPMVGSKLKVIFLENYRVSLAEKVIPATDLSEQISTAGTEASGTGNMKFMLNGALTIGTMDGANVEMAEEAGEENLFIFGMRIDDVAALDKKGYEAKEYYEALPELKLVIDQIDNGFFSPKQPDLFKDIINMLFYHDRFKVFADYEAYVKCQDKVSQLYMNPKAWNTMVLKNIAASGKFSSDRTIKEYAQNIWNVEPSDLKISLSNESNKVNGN", "test": "glycogen phosphorylase inhibition, multienzyme coupled assay (glucose-1-phosphate production from glycogen)", "format": "biochemical", "conditions": "hrl GPα 20 nM, 6 hours at 30° C.", "experimental": "The activity of the compounds is determined by measuring the inhibitory effect of the compounds on glycogen degradation, the production of glucose-1-phosphate from glycogen is monitored by the multienzyme coupled assay, as described in EP 0 846 464 A2, general method of Pesce et al (Pesce, M A, Bodourian, S H, Harris, R C, and Nicholson, J F (1977) Clinical Chemistry 23, […]). The reactions were in 384 well microplate format in a volume of 50 μl. The change in fluorescence due to the conversion of the co-factor NAD to NADH is measured at 340 nm excitation, 465 nm emission in a Tecan Ultra Multifunctional Microplate Reader. The reaction is in 50 mM HEPES, 3.5 mM KH2PO4, 2.5 mM MgCl2, 2.5 mM ethylene glycol-bis(b-aminoethyl ether) N,N,N′,N′-tetraacetic acid, 100 mM KCl, 8 mM D-(+)-glucose pH7.2, containing 0.5 mM dithiothreitol, the assay buffer solution. Human recombinant liver glycogen phosphorylase a (hrl GPα) 20 nM is pre-incubated in assay buffer solution with 6.25 mM NAD, 1.25 mg type III glycogen at 1.25 mg ml^−1 the reagent buffer, for 30 minutes. […] The non-inhibited activity of GPα is measured in the presence of 10 μl 5% DMSO in assay buffer solution and maximum inhibition measured in the presence of 5 mgs ml^−1 N-ethylmaleimide. […] Relative Fluoresence Units (RFUs) are measured at 340 nm excitation, 465 nm emission . […]"}}, "data": [{"smiles": "CCN1C(C)=C(C(=O)OC(C)C)C(c2ccccc2Cl)C2=C1COC2=O", "note": "(stereo not drawn) [Bay R3401]", "values": [{"measurement": "arterial plasma glucose following a glucagon challenge", "setting": "conscious dogs", "value": "reduced significantly"}, {"measurement": "hepatic glucose output following a glucagon challenge", "setting": "conscious dogs", "value": "reduced significantly"}]}, {"smiles": "CN(C)C(=O)[C@H](O)[C@H](Cc1ccccc1)NC(=O)c1cc2cc(Cl)ccc2[nH]1", "note": "[CP91149]", "values": [{"measurement": "glucagon stimulated glycogenolysis", "setting": "hepatocytes", "value": "reduce"}, {"measurement": "glucose output", "setting": "hepatocytes", "value": "reduce"}, {"measurement": "plasma glucose concentration", "setting": "db/db and ob/ob mice", "value": "reduced, in a dose related manner"}]}, {"smiles": "O=C(N[C@@H](Cc1ccc(F)cc1)C(=O)N1CCC(O)CC1)c1cc2cc(Cl)ccc2[nH]1", "note": "[CP320626]", "values": [{"measurement": "glucagon stimulated glycogenolysis", "setting": "hepatocytes", "value": "reduce"}, {"measurement": "glucose output", "setting": "hepatocytes", "value": "reduce"}, {"measurement": "plasma glucose concentration", "setting": "db/db and ob/ob mice", "value": "reduced, in a dose related manner"}]}, {"smiles": "O=C(N[C@@H]1Cc2ccccc2[C@H]1CO)c1cc2cc(Cl)sc2[nH]1", "note": "[Example 5, 2-Chloro-N-[(1R,2R)-1-(hydroxymethyl)-2,3-dihydro-1H-inden-2-yl]-6H-thieno[2,3-b]pyrrole-5-carboxamide]", "values": [{"measurement": "IC50", "setting": "[1]", "value": 493, "unit": "nM"}]}]}
